Patent US6136845A (The Texas A&M University System, priority 1998, dated 2000)

Tests used:
PR = settings: 21 to 25 day-old female Sprague-Dawley rat uterus; cited from earlier work
CYP1A1 [1] = settings: result in words; cited from earlier work
[2] = Body and organ weights (Examples 4 and 5)
Description: (§3) Methods: Rats were ovariectomized at 97 days of age, and treatments began at 117 days of age. […] Rats were euthanized on day 21.
For the control vehicle and the MCDF vehicle ethanol was added (5% v/v) and then evaporated away.

[3] = cited from earlier work
uterus [4] = assay: Uterine wet weight in ovariectomized rats (Example 4); type: in vivo, Sprague-Dawley rat; settings: 0.4 mg/kg/day each oral, 20 days
Description: as §3

uterine cytosolic PR = assay: Uterine cytosolic PR levels in ovariectomized rats (Example 4); type: in vivo, Sprague-Dawley rat; settings: 0.4 mg/kg/day each oral, 20 days
Description: (§1) Rats were euthanized on day 21.

femurs = assay: Bone effects in ovariectomized rats (femur weight and length); type: in vivo, Sprague-Dawley rat; settings: tamoxifen 0.4, 6-MCDF 0.8 mg/kg/day oral, 20 days
Description: The ovariectomized rat is used as a model for osteoporosis.
Rats were euthanized on day 21. After uteri were excised and processed, both left and right femurs were excised and the length measured with calipers. […] Wet weight was measured after residual connective tissue was stripped away. Dry weight was measured after the bones were dried for 12 ours at 130° C.

[5] = Body and organ weights (Example 6, Table 7)
Description: For Table 7 and FIGS. 3 and 3B, exact aged virgin female Sprague-Dawley rats were dosed on day 55 in the afternoon with 20 mg/rat 7,12-dimethylbenz[a]anthacene in a volume of 0.5 ml/rat corn oil (rats weigh approximately 165 g, resulting in 120 mg/kg DMBA and 3 ml/kg corn oil).

uterus [6] = assay: Uterine wet weight in ovariectomized rats (Example 6, Table 6); type: in vivo, Sprague-Dawley rat; settings: tamoxifen 0.4, 6-MCDF 0.8 mg/kg/day oral, 20 days
Description: as §1

CYP1A1 [7] = settings: cited from earlier work
liver = settings: result in words; cited from earlier work
mammary tumors = assay: DMBA-induced rat mammary tumor model, tumor volume and weight; type: in vivo, Sprague-Dawley rat; settings: 20 days
Description: Female virgin Sprague-Dawley rats were obtained from Harlan (Houston) and were allowed to acclimate for 10 days, allowed access to food and water ad libitum, and maintained on a 12 h light/dark schedule. Mammary tumors were induced in 50±3 day old-rats by administering a single gavage dose of 20 mg DMBA in 0.5 ml corn oil. […] Tumor sizes were measured with calipers, and volumes were calculated by formula (length×width×depth)/6π and are expressed as percent control. […] All tumors were removed, weighed, and sectioned. One portion was frozen in liquid nitrogen for PCR analysis; one portion was placed in 10% formalin for histopathological analysis; and the majority was immediately homogenized for the preparation of microsomal and cytosolic fractions. Livers were perfused and weighed, and cytosol and microsomes were prepared as previously described.

mammary tumor = settings: cited from earlier work
[8] = tested on: hepatic CYP1A1-dependent EROD activity; assay: Hepatic EROD activity in DMBA-treated rats; settings: 0.4 mg/kg/day each
Description: (§2) Female virgin Sprague-Dawley rats were obtained from Harlan (Houston) and were allowed to acclimate for 10 days, allowed access to food and water ad libitum, and maintained on a 12 h light/dark schedule. Mammary tumors were induced in 50±3 day old-rats by administering a single gavage dose of 20 mg DMBA in 0.5 ml corn oil. […] Tumor sizes were measured with calipers, and volumes were calculated by formula (length×width×depth)/6π and are expressed as percent control. One week after their last injection, rats were euthanized by asphyxiation. All tumors were removed, weighed, and sectioned. One portion was frozen in liquid nitrogen for PCR analysis; one portion was placed in 10% formalin for histopathological analysis; and the majority was immediately homogenized for the preparation of microsomal and cytosolic fractions. Livers were perfused and weighed, and cytosol and microsomes were prepared as previously described.

Ah receptor = settings: result in words; cited from earlier work
uterine peroxidase [9] = assay: Uterine peroxidase activity in ovariectomized rats (Example 6, Table 6); type: in vivo, Sprague-Dawley rat; settings: tamoxifen 0.4, 6-MCDF 0.8 mg/kg/day oral, 20 days
Description: as §1

uterine peroxidase [10] = assay: Uterine peroxidase assay in ovariectomized rats (Example 4); type: in vivo, Sprague-Dawley rat; settings: 0.4 mg/kg/day each oral, 20 days
Description: as §1

ER = settings: 21 to 25 day-old female Sprague-Dawley rat uterus; cited from earlier work
rat uterus = settings: cited from earlier work
[11] = Body and organ weights in DMBA-treated rats
Description: as §2

[12] = tested on: uterine progesterone receptor; assay: Uterine progesterone receptor in ovariectomized rats (Example 6, Table 6); type: in vivo, Sprague-Dawley rat; settings: tamoxifen 0.4, 6-MCDF 0.8 mg/kg/day oral, 20 days
Description: as §1

[13] = each drug 0.4 mg/kg/day by gavage, DMBA rats

## Cc1cc(Cl)cc2c1oc1cc(Cl)cc(Cl)c12 [6-MCDF, 6-methyl-1,3,8-trichlorodibenzofuran]
PR
  nuclear and cytosolic progesterone receptor (PR) binding: dose-dependent decrease
CYP1A1 [1]
  induction of hepatic CYP1A1-dependent activity: not accompanied by any significant changes
[2]; 0.4 mg/kg/day oral, 20 days, ovariectomized rats, result in words
  splenic wet weight: slight but significant increase
[2]; Table 5, baseline, control 273.1 ± 8.1
  Rat weight at start of treatments: 274.7 ± 7.0 g
[2]; Table 5, control 0.247 ± 0.007
  Spleen wet weight (% body wt): 0.298 ± 0.015 % body wt
[2]; Table 5, control 0.318 ± 0.010
  kidney weight (% body wt): 0.332 ± .004 % body wt
[2]; Table 5, control 0.319 ± 0.006
  Heart weight (% body wt): 0.344 ± 0.014 % body wt
[2]; Table 5, control 0.72O ± 0.012
  Spleen wet weight: 0.887 ± 0.043 g
[2]; Table 5, control 0.933 ± 0.038
  Kidney weight: 0.991 ± 0.026 g
[2]; Table 5, control 0.935 ± 0.039
  Heart weight: 1.024 ± 0.037 g
[2]; Table 5, control 4.06 ± 0.23
  Liver weight (% body wt): 4.37 ± 0.26 % body wt
[2]; Table 5, control 11.88 ± 0.78
  Liver weight: 13.04 ± 0.87 g
[2]; Table 5, control 293.2 ± 10.9
  Rat weight prior to euthanasia: 298.3 ± 5.0 g
[3]; co-treatment with TCDD
  effect on TCDD induced toxic responses: inhibiter TCDD induced toxic responses
[3]; result in words
  toxicity: minimal toxicity
Uterus [4]; control 0.045 ± 0.002
  Uterine Wet Weight (% body wt): 0.060 ± 0.006 % body wt
Uterus [4]; control 0.131 ± 0.006
  Uterine Wet Weight: 0.180 ± 0.019 g
Uterine cytosolic PR; control 308 ± 142
  Uterine cytosolic PR levels (fmol/mg protein): 338 ± 31 fmol/mg protein
Uterine cytosolic PR; control 1100 ± 508
  Uterine cytosolic PR levels (fmol/uterus): 1925 ± 177 fmol/uterus
Uterine cytosolic PR; control 8368 ± 3868
  Uterine cytosolic PR levels (fmol/g uterus): 10693 ± 986 fmol/g uterus
femurs; control 0.180 ± 0.005
  Dry bone weight: 0.183 ± 0.003 % body weight
femurs; control 0.347 ± 0.009
  Wet bone weight: 0.341 ± 0.008 % body weight
femurs; control 12.1 ± 0.4
  Bone length index: 12.17 ± 0.3 mm/body weight × 100
[5]; Table 7, baseline, control 255 ± 3
  Rat weight at start of treatments: 257 ± 4 g
[5]; Table 7, control 0.289 ± 0.018
  Spleen weight (% body weight): 0.265 ± 0.014 % body weight
[5]; Table 7, control 0.334 ± 0.010
  Kidney weight (% body weight): 0.352 ± 0.015 % body weight
[5]; Table 7, control 0.360 ± 0.010
  Heart weight (% body weight): 0.356 ± 0.012 % body weight
[5]; Table 7, control 295 ± 11
  Rat weight prior to euthanasia: 289 ± 7 g
Uterus [6]; control 0.0583 ± 0.0055
  Uterine wet weight (% body weight): 0.0454 % body weight
Uterus [6]; control 0.171 ± 0.15
  Uterine wet weight: 0.131 g
CYP1A1 [7]; less potent than TCDD, same animals
  potency as inducer of hepatic CYP1A1 relative to TCDD (times less potent): > 157,000 times
CYP1A1 [7]; result in words
  induction of CYP1A1: weak inducer of CYP1A1
liver
  liver morphology: not accompanied by any significant changes
  liver/body weight ratios: not accompanied by any significant changes
Mammary tumors; 0.4 mg/kg/day each, control 3.82 ± 1.18
  Tumor Weight: 1.68 ± 0.53 g
Mammary tumors; 0.4 mg/kg/day each, control 100 ± 27.7
  Tumor Wt (% Control): 43.9 ± 12.8 % Control
Mammary tumors; 0.4 mg/kg/day each, control 100 ± 31.5
  Final Tumor Volume (% Control): 33.6 ± 11.2 % Control
Mammary tumors; 0.4 mg/kg/day each, control 2734 ± 956
  Final Tumor Volume: 918 ± 305 mm^3
Mammary tumors; [13]
  % Inhibition tumor volume: 66.4%
  % Inhibition tumor weight: NS decrease
Mammary tumor; 5 mg/kg/wk
  growth inhibition: > 50%
Mammary tumor; 5, 10 or 25 mg/kg/wk, result in words
  mammary tumor growth: significantly inhibited
[8]; 20 days, control 118 ± 40
  EROD activity: 140 ± 32 pmol/mg/min
[8]; result in words
  induction of hepatic EROD activity: did not induce
Ah receptor
  binding to the Ah receptor: bound to the Ah receptor
Uterine peroxidase [9]; per g uterus
  Uterine Peroxidase Activity (Absorbance/g uterus): 0.88 ± 0.01 Fold Increase over control
Uterine peroxidase [9]; per mg protein
  Uterine Peroxidase Activity (Absorbance/mg protein): 0.99 ± 0.01 Fold Increase over control
Uterine peroxidase [9]; per uterus
  Uterine Peroxidase Activity (Absorbance/uterus): 0.57 ± 0.01 Fold Increase over control
Uterine peroxidase [10]; per g uterus
  Uterine Peroxidase Assay (Abs/g uterus): 1.14 ± 0.02 Fold Increase over Control
Uterine peroxidase [10]; per mg protein
  Uterine Peroxidase Assay (Abs/mg protein): 1.05 ± 0.02 Fold Increase over Control
Uterine peroxidase [10]; per uterus
  Uterine Peroxidase Assay (Abs/uterus): 1.56 ± 0.03 Fold Increase over Control
ER
  nuclear and cytosolic ER binding: dose-dependent decrease
Rat uterus; rat uterus
  E2-induced hypertrophy, peroxidase activity, cytosolic ER and PR binding, EGF receptor and c-fos mRNA levels: inhibited
  effect on TCDD-induced antiestrogenic activity: did not inhibit
Rat uterus; result in words
  antiestrogenicity in the rat uterus: antiestrogen in the rat uterus
[11]; 0.4 mg/kg/day each, 20 days, control 0.212 ± 0.017
  Uterine Wt.: 0.230 ± 0.037 % BW
[11]; 0.4 mg/kg/day each, 20 days, control 0.257 ± .022
  Spleen Wt.: 0.255 ± 0.017 % BW
[11]; 0.4 mg/kg/day each, 20 days, control 0.349 ± 0.007
  Kidney weight: 0.361 ± 0.016 % BW
[11]; 0.4 mg/kg/day each, 20 days, control 3.13 ± 0.12
  Liver weight: 3.49 ± 0.16 % BW
[11]; 0.4 mg/kg/day each, 20 days, control 250 ± 5
  Final Body Weight: 247 ± 4 g
[11]; rat, in vivo
  Heart weight: 0.405 ± 0.10 % BW
[12]; control 198 ± 15
  Uterine Progesterone Receptor (fmol/mg protein): 152.9 ± 35 fmol/mg protein
[12]; control 765 ± 69
  Uterine Progesterone Receptor (fmol/uterus): 441.5 ± 100 fmol/uterus
[12]; control 4462 ± 343
  Uterine Progesterone Receptor (fmol/g uterus): 3985 ± 907 fmol/g uterus
